Test results published in the supplement of paper PMC10883282.
± gives the standard deviation of the averaged measurements.

What was measured:
Assay in all cases: relative viability vs DMSO control (72 h) (fraction); higher = more viable cells
[1] = system: HS729
How it was run: (§1)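 Plates held 72 h at 37 °C and 5% CO2 contained sarcoma cell lines seeded in 384-well format to reach 80–90% confluence, plus 2.5 µl of serially diluted compound added after 24 h. Source plate concentrations ran from 10 mM to 0.0002 mM, with 0.1% DMSO as vehicle and a 5 µM positive control. Percent growth from ATPLite readings, averaged over up to triplicate wells, gave relative viability. Values were rescaled with 1 as full and 0 as none.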

[2] = system: HT1080
How it was run: as §1

[3] = system: SW684
How it was run: as §1

[4] = system: KHOS-NP
How it was run: as §1

[5] = system: A204
How it was run: as §1

[6] = system: VA-ES-BJ
How it was run: as §1

[7] = system: SW982
How it was run: as §1

[8] = system: SK-ES-1
How it was run: as §1

[9] = system: SK-LMS-1
How it was run: as §1

[10] = system: SW872
How it was run: as §1

[11] = system: RD-ES
How it was run: as §1

[12] = system: G401
How it was run: as §1

Compound: C=CC(=O)Nc1cc(Nc2nccc(-c3cn(C)c4ccccc34)n2)c(OC)cc1N(C)CCN(C)C [Osimertinib]
- relative viability ([1]; 0.00017 µM): 1.06 ± 0.013
- relative viability ([1]; 0.00051 µM): 0.954 ± 0.031
- relative viability ([1]; 0.00152 µM): 1.04 ± 0.016
- relative viability ([1]; 0.00457 µM): 0.976 ± 0.072
- relative viability ([1]; 0.01372 µM): 0.944 ± 0.017
- relative viability ([1]; 0.04115 µM): 0.933 ± 0.035
- relative viability ([1]; 0.1235 µM): 0.907 ± 0.014
- relative viability ([1]; 0.3704 µM): 0.822 ± 0.023
- relative viability ([1]; 1.111 µM): 0.78 ± 0.075
- relative viability ([1]; 3.333 µM): 0.681 ± 0.033
- relative viability ([1]; 10 µM): 0.533 ± 0.036
- relative viability ([2]; 0.00017 µM): 1.08 ± 0.043
- relative viability ([2]; 0.00051 µM): 1.09 ± 0.012
- relative viability ([2]; 0.00152 µM): 1.06 ± 0.043
- relative viability ([2]; 0.00457 µM): 1.06 ± 0.013
- relative viability ([2]; 0.01372 µM): 1.04 ± 0.029
- relative viability ([2]; 0.04115 µM): 1.06 ± 0.028
- relative viability ([2]; 0.1235 µM): 1.07 ± 0.041
- relative viability ([2]; 0.3704 µM): 1.03 ± 0.011
- relative viability ([2]; 1.111 µM): 0.992 ± 0.023
- relative viability ([2]; 3.333 µM): 0.935 ± 0.024
- relative viability ([2]; 10 µM): 0.0308 ± 0.0047
- relative viability ([3]; 0.00017 µM): 1.11 ± 0.045
- relative viability ([3]; 0.00051 µM): 1.18 ± 0.029
- relative viability ([3]; 0.00152 µM): 1.21 ± 0.034
- relative viability ([3]; 0.00457 µM): 1.2 ± 0.054
- relative viability ([3]; 0.01372 µM): 1.16 ± 0.068
- relative viability ([3]; 0.04115 µM): 1.13 ± 0.067
- relative viability ([3]; 0.1235 µM): 1.13 ± 0.11
- relative viability ([3]; 0.3704 µM): 1.12 ± 0.046
- relative viability ([3]; 1.111 µM): 1.11 ± 0.022
- relative viability ([3]; 3.333 µM): 0.984 ± 0.035
- relative viability ([3]; 10 µM): 0.063 ± 0.026
- relative viability ([4]; 0.00017 µM): 1.1 ± 0.032
- relative viability ([4]; 0.00051 µM): 1.11 ± 0.022
- relative viability ([4]; 0.00152 µM): 1.084 ± 0.006
- relative viability ([4]; 0.00457 µM): 1.08 ± 0.027
- relative viability ([4]; 0.01372 µM): 1.07 ± 0.02
- relative viability ([4]; 0.04115 µM): 1.06 ± 0.017
- relative viability ([4]; 0.1235 µM): 1.06 ± 0.034
- relative viability ([4]; 0.3704 µM): 1.05 ± 0.011
- relative viability ([4]; 1.111 µM): 1.05 ± 0.031
- relative viability ([4]; 3.333 µM): 1.02 ± 0.031
- relative viability ([4]; 10 µM): 0.505 ± 0.035
- relative viability ([5]; 0.00017 µM): 1.03 ± 0.094
- relative viability ([5]; 0.00051 µM): 1.04 ± 0.089
- relative viability ([5]; 0.00152 µM): 1.05 ± 0.1
- relative viability ([5]; 0.00457 µM): 1.04 ± 0.034
- relative viability ([5]; 0.01372 µM): 1.01 ± 0.055
- relative viability ([5]; 0.04115 µM): 1.03 ± 0.07
- relative viability ([5]; 0.1235 µM): 1.03 ± 0.023
- relative viability ([5]; 0.3704 µM): 0.9068 ± 0.0048
- relative viability ([5]; 1.111 µM): 0.777 ± 0.051
- relative viability ([5]; 3.333 µM): 0.582 ± 0.12
- relative viability ([5]; 10 µM): 0.141 ± 0.073
- relative viability ([6]; 0.00017 µM): 1.09 ± 0.047
- relative viability ([6]; 0.00051 µM): 1.09 ± 0.041
- relative viability ([6]; 0.00152 µM): 1.06 ± 0.044
- relative viability ([6]; 0.00457 µM): 1.04 ± 0.045
- relative viability ([6]; 0.01372 µM): 1.03 ± 0.031
- relative viability ([6]; 0.04115 µM): 1.02 ± 0.029
- relative viability ([6]; 0.1235 µM): 0.984 ± 0.059
- relative viability ([6]; 0.3704 µM): 0.926 ± 0.055
- relative viability ([6]; 1.111 µM): 0.877 ± 0.041
- relative viability ([6]; 3.333 µM): 0.752 ± 0.081
- relative viability ([6]; 10 µM): 0.0739 ± 0.02
- relative viability ([7]; 0.00017 µM): 1.02 ± 0.032
- relative viability ([7]; 0.00051 µM): 1.05 ± 0.017
- relative viability ([7]; 0.00152 µM): 1.01 ± 0.015
- relative viability ([7]; 0.00457 µM): 1.03 ± 0.012
- relative viability ([7]; 0.01372 µM): 1.04 ± 0.017
- relative viability ([7]; 0.04115 µM): 1.03 ± 0.018
- relative viability ([7]; 0.1235 µM): 0.996 ± 0.028
- relative viability ([7]; 0.3704 µM): 0.983 ± 0.067
- relative viability ([7]; 1.111 µM): 0.881 ± 0.088
- relative viability ([7]; 3.333 µM): 0.678 ± 0.14
- relative viability ([7]; 10 µM): 0.017 ± 0.0011
- relative viability ([8]; 0.00017 µM): 1 ± 0.063
- relative viability ([8]; 0.00051 µM): 1.05 ± 0.019
- relative viability ([8]; 0.00152 µM): 1.07 ± 0.014
- relative viability ([8]; 0.00457 µM): 1.01 ± 0.041
- relative viability ([8]; 0.01372 µM): 1.02 ± 0.075
- relative viability ([8]; 0.04115 µM): 1.026 ± 0.0092
- relative viability ([8]; 0.1235 µM): 1 ± 0.053
- relative viability ([8]; 0.3704 µM): 0.942 ± 0.041
- relative viability ([8]; 1.111 µM): 0.762 ± 0.052
- relative viability ([8]; 3.333 µM): 0.294 ± 0.011
- relative viability ([8]; 10 µM): 0.011 ± 0.0004
- relative viability ([9]; 0.00017 µM): 1.1 ± 0.059
- relative viability ([9]; 0.00051 µM): 1.1 ± 0.063
- relative viability ([9]; 0.00152 µM): 1.08 ± 0.033
- relative viability ([9]; 0.00457 µM): 1.07 ± 0.052
- relative viability ([9]; 0.01372 µM): 1.06 ± 0.013
- relative viability ([9]; 0.04115 µM): 1.03 ± 0.018
- relative viability ([9]; 0.1235 µM): 1.07 ± 0.036
- relative viability ([9]; 0.3704 µM): 1.02 ± 0.015
- relative viability ([9]; 1.111 µM): 0.972 ± 0.046
- relative viability ([9]; 3.333 µM): 0.776 ± 0.0093
- relative viability ([9]; 10 µM): 0.032 ± 0.0068
- relative viability ([10]; 0.00017 µM): 1.078 ± 0.0031
- relative viability ([10]; 0.00051 µM): 1.06 ± 0.021
- relative viability ([10]; 0.00152 µM): 1.06 ± 0.031
- relative viability ([10]; 0.00457 µM): 1.08 ± 0.011
- relative viability ([10]; 0.01372 µM): 1.04 ± 0.047
- relative viability ([10]; 0.04115 µM): 1.02 ± 0.054
- relative viability ([10]; 0.1235 µM): 1.03 ± 0.035
- relative viability ([10]; 0.3704 µM): 0.988 ± 0.058
- relative viability ([10]; 1.111 µM): 0.894 ± 0.054
- relative viability ([10]; 3.333 µM): 0.761 ± 0.039
- relative viability ([10]; 10 µM): 0.384 ± 0.06
- relative viability ([11]; 0.00017 µM): 0.962 ± 0.026
- relative viability ([11]; 0.00051 µM): 0.978 ± 0.015
- relative viability ([11]; 0.00152 µM): 0.977 ± 0.029
- relative viability ([11]; 0.00457 µM): 0.971 ± 0.03
- relative viability ([11]; 0.01372 µM): 0.979 ± 0.02
- relative viability ([11]; 0.04115 µM): 0.964 ± 0.043
- relative viability ([11]; 0.1235 µM): 0.947 ± 0.041
- relative viability ([11]; 0.3704 µM): 0.892 ± 0.027
- relative viability ([11]; 1.111 µM): 0.775 ± 0.018
- relative viability ([11]; 3.333 µM): 0.598 ± 0.024
- relative viability ([11]; 10 µM): 0.0212 ± 0.0017
- relative viability ([12]; 0.00017 µM): 1.01 ± 0.012
- relative viability ([12]; 0.00051 µM): 1.02 ± 0.036
- relative viability ([12]; 0.00152 µM): 1.03 ± 0.065
- relative viability ([12]; 0.00457 µM): 1.03 ± 0.024
- relative viability ([12]; 0.01372 µM): 1.02 ± 0.015
- relative viability ([12]; 0.04115 µM): 0.976 ± 0.025
- relative viability ([12]; 0.1235 µM): 0.962 ± 0.043
- relative viability ([12]; 0.3704 µM): 0.87 ± 0.042
- relative viability ([12]; 1.111 µM): 0.816 ± 0.033
- relative viability ([12]; 3.333 µM): 0.711 ± 0.041
- relative viability ([12]; 10 µM): 0.0893 ± 0.013
